Like-named read-outs stand apart in the source and are kept apart here.
What was measured:
Format in all cases: binding
[1] = target: T1, 3×FLAG–SGK3-(1–162) PX domain wild-type (Homo sapiens, UniProt Q96BR1); assay: ITC, wild-type SGK3 PX domain; settings: 30°C
T1 construct: reaction chamber containing wild-type 3×FLAG–SGK3-(1–162) PX domain; host or cells: E. coli BL21-CodonPlus (DE3)-RIL (from general methods, not tied expressly to this protein)
T1 sequence (Q96BR1 1-162): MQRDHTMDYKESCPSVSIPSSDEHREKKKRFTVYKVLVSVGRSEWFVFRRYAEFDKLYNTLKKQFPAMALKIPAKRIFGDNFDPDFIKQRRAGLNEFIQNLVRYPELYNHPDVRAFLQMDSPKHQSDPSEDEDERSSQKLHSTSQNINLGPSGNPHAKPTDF
Description: (§1) ITC experiments were carried out on a Microcal VP-ITC. A series of injections of peptide were made into an isolated chamber containing the protein at a constant temperature of 30°C. Heat changes within the cell were monitored during each injection of peptide and recorded as the total heat change per second over time. A binding isotherm was then fitted to data and expressed as the heat change per mol of peptide against the peptide/protein ratio. Injectant was PtdIns and PtdIns(3)P (Echelon) dissolved in buffer (50 mM Hepes, pH 7.4, and 150 mM NaCl). […] Data were analysed using Origin 7.0 with the Microcal software patch installed. […]
(§2) Figure 5 SGK3 binds to PtdIns(3)P via its PX domain (A) ITC was performed by gradually titrating 0.5 mM PtdIns(3)P into the reaction chamber containing wild-type 3×FLAG–SGK3-(1–162) PX domain (left panel) or mutant 3×FLAG–SGK3-(1–162) R50A PX domain (middle panel) and 3×FLAG–SGK3-(1–162) R90A PX domain (right panel). […] Kd were calculated using Origin 7.0 with ITC data analysis disc program. (B) The ability of the indicated GST fusion proteins to bind various phosphoinositides was analysed. […] The membranes were washed and the PX domain protein bound to the membrane by virtue of its interaction with lipid was detected using by using HRP-conjugated anti-FLAG antibodies (SGK3 PX domain) or anti-GST (PH domains).

[2] = tested on: T2, 3×FLAG–SGK3-(1–162) R50A PX domain; assay: ITC, SGK3 PX domain R50A
T2 construct: mutant 3×FLAG–SGK3-(1–162) R50A PX domain (middle panel); host or cells: E. coli BL21-CodonPlus (DE3)-RIL (from general methods, not tied expressly to this protein)
Description: as §1, §2

[3] = tested on: T3, 3×FLAG–SGK3-(1–162) R90A PX domain; assay: ITC, SGK3 PX domain R90A
T3 construct: 3×FLAG–SGK3-(1–162) R90A PX domain (right panel); host or cells: E. coli BL21-CodonPlus (DE3)-RIL (from general methods, not tied expressly to this protein)
Description: as §1, §2

PtdIns(3)P
Kd ([1]; read-out: Kd1): 1.8 µM
Kd ([1]; read-out: Kd2): 5.2 µM
binding to PX domain with Arg50 to alanine mutation [2]: abolished binding
binding to PX domain with Arg90 to alanine mutation [3]: abolished binding

Reference: PMC4209782 (Biochemical Journal, 2014)
